Source: patent publication US20160151337A1, “ANNELATED PYRROLES AND THEIR USE AS CRAC INHIBITORS” (Grünenthal GmbH, priority 2013, published 2016)

Assays:
CRAC channel = molecular target: T1, CRAC channel (Homo sapiens, UniProt Q96D31); test: HEK Calcium Influx Assay (FLIPR), inhibition of store-operated Ca2+ entry after thapsigargin store depletion; type: cell-based; conditions: 10 μM compound, HEK293 cells, read-out: % inhib. [@ 10 μM] FLIPR
T1 construct: endogenous in cells; host or cells: HEK293 (ECACC), untransfected
T1 sequence (Q96D31 whole entry): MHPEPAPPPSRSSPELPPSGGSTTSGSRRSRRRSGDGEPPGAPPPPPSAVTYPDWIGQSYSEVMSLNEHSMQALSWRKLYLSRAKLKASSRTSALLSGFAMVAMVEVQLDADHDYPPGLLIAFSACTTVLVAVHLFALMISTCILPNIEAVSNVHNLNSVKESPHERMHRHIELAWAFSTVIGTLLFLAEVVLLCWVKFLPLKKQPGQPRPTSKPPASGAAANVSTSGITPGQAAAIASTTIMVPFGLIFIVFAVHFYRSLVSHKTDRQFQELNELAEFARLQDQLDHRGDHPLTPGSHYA
Procedure, shortened: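 HEK293 cells loaded with Calcium-4 dye in Ca2+-free HBS (pH 7.4), stores depleted with 2 μM thapsigargin for 10 min (100 μM EGTA); after 3 mM CaCl2 re-addition and 15 min steady-state, compounds added and FLIPR signal averaged 9.5–10 min post-dose. IC50 from 8-point 1:3.16 dilutions from 10 μM, normalised to DMSO and non-depleted wells.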

[1] = test system: Interleukin-2 (IL-2) production/release in Jurkat T cells; test: Jurkat IL-2 Production Assay (PHA-stimulated, IL-2 AlphaLisa); type: cell-based; conditions: Homo sapiens, PHA 15 μg/ml, 22 h, inhibition of IL-2 production
Description: The effect of compounds of the invention on Interleukin-2 (IL-2) production/release was tested in the Jurkat T cell line (ECACC) clone E6-1.
Jurkat T cells were cultured in DMEM/F12/Glutamax (Gibco) containing 10% FCS (Gibco), and maintained at 37° C., 5% CO2. Cells were split twice a week [5*10^6 (Mon-Thu) and 1*10^7 (Thu-Mon) cells/50 ml medium in 1-175 ZK culture flasks, respectively].
Prior to experiment, cells were seeded on 96 well plates (Cellstar 96 Well; Cat No. 655180, Greiner bio-one) at a density of 5*10^5 cells/well in DMEM/F12/Glutamax (Gibco) containing 10% FCS (Gibco), and incubated for 60 min at 37° C., 5% CO2. Subsequently, compounds were added and cells were allowed to incubate for 30 min at 37° C., 5% CO2. Cells were then stimulated with 15 μg/ml Phyto-hemagglutinin (PHA; Sigma) for 22 hours at 37° C., 5% CO2.
Before sampling of the supernatants, cells were spun down (200*g/5 min/RT). The amount of IL-2 released into the supernatant was quantified with the human IL-2 AlphaLisa kit (Perkin Elmer) according to manufacturer's instructions. Luminescence proximity measurements were carried out in the Synergy H4 reader (BioTek) employing the fluorescence setting of the reader (ex: 680/30 nm; em: 620/40 nm).
Inhibition of IL-2 production/release in/from Jurkat T cells was quantified as follows: Zero percent inhibition (MAX) was defined as the [IL-2] determined in supernatants derived from cells to which PHA & DMSO-only had been added instead of compound. Hundred percent inhibition (MIN) was defined as the [IL-2] determined in supernatants derived from cells that had been pre-treated with 1 μM CyclosporineA (Sigma) before the addition of 15 μg/ml PHA.
For routine IC50 determinations of compounds, 8 concentrations of a serial dilution (1:3.16) were tested, starting off from 10 μM.

Structure (SMILES)	inhibition at 10 µM (CRAC channel)	IC50 [1]
Cc1cc(CS(C)(=O)=O)ncc1N1CCc2[nH]c(-c3c(F)cccc3F)cc2C1 [Example 104, 2-(2,6-Difluoro-phenyl)-5-[4-methyl-6-(methylsulfonyl-methyl)-pyridin-3-yl]-4,5,6,7-tetrahydro-1H-pyrrolo[3,2-c]pyridine]	> 70%	1 to 5 µM
Cc1cc(C#N)cnc1N1CCc2[nH]c(C3CCCCC3)cc2C1 [Example 102, 6-(2-Cyclohexyl-4,5,6,7-tetrahydro-1H-pyrrolo[3,2-c]pyridin-5-yl)-5-methyl-nicotinonitrile]	> 70%	0.5 to 1 µM
Cc1sc(-c2ccccn2)nc1N1CCc2[nH]c(-c3c(F)cccc3F)cc2C1 [Example 6, 4-[2-(2,6-Difluoro-phenyl)-4,5,6,7-tetrahydro-1H-pyrrolo[3,2-c]pyridin-5-yl]-5-methyl-2-pyridin-2-yl-thiazole]	50 to 70%	< 0.5 µM
Cc1cc(S(=O)(=O)NCC(F)(F)F)ccc1N1CCc2[nH]c(-c3c(F)cccc3F)cc2C1 [Example 136, 4-[2-(2,6-Difluoro-phenyl)-4,5,6,7-tetrahydro-1H-pyrrolo[3,2-c]pyridin-5-yl]-3-methyl-N-(2,2,2-trifluoro-ethyl)-benzenesulfonic acid amide]	< 50%	1 to 5 µM
Cc1sc(-c2cnccn2)nc1N1CCc2[nH]c(-c3c(F)cccc3F)cc2C1 [Example 26, 4-[2-(2,6-Difluoro-phenyl)-4,5,6,7-tetrahydro-1H-pyrrolo[3,2-c]pyridin-5-yl]-5-methyl-2-pyrazin-2-yl-thiazole]	> 70%	< 0.5 µM
Cc1cc(S(=O)(=O)N2CCOCC2)ccc1N1CCc2[nH]c(-c3c(F)cccc3F)cc2C1 [Example 117, 4-[[4-[2-(2,6-Difluoro-phenyl)-4,5,6,7-tetrahydro-1H-pyrrolo[3,2-c]pyridin-5-yl]-3-methyl-phenyl]sulfonyl]-morpholine]	> 70%	0.5 to 1 µM
Cc1ccncc1N1CCc2[nH]c(-c3c(F)cccc3F)cc2C1 [Example 10, 2-(2,6-Difluoro-phenyl)-5-(4-methyl-pyridin-3-yl)-4,5,6,7-tetrahydro-1H-pyrrolo[3,2-c]pyridine]	> 70%	1 to 5 µM
COc1ccc(OC)c(N2CCc3[nH]c(-c4c(F)cccc4F)cc3C2)c1 [Example 21, 2-(2,6-Difluoro-phenyl)-5-(2,5-dimethoxyphenyl)-4,5,6,7-tetrahydro-1H-pyrrolo[3,2-c]pyridine]	> 70%	1 to 5 µM
Cc1cc(S(C)(=O)=O)ncc1N1CCc2[nH]c(-c3c(F)cccc3F)cc2C1 [Example 16, 2-(2,6-Difluoro-phenyl)-5-(4-methyl-6-methylsulfonyl-pyridin-3-yl)-4,5,6,7-tetrahydro-1H-pyrrolo[3,2-c]pyridine]	> 70%	< 0.5 µM
Cc1cc2c(cc1N1CCc3[nH]c(-c4c(F)cccc4F)cc3C1)OC(F)(F)O2 [Example 20, 5-(2,2-Difluoro-6-methyl-1,3-benzodioxol-5-yl)-2-(2,6-difluoro-phenyl)-4,5,6,7-tetrahydro-1H-pyrrolo[3,2-c]pyridine]	< 50%	1 to 5 µM
Cc1cc(OC(F)(F)F)ncc1N1CCc2[nH]c(-c3c(F)cccc3F)cc2C1 [Example 111, 2-(2,6-Difluoro-phenyl)-5-[4-methyl-6-(trifluoromethyloxy)-pyridin-3-yl]-4,5,6,7-tetrahydro-1H-pyrrolo[3,2-c]pyridine]	< 50%	< 0.5 µM
Cc1cc(N(C)S(C)(=O)=O)ccc1N1CCc2[nH]c(-c3c(F)cccc3F)cc2C1 [Example 132, N-[4-[2-(2,6-Difluoro-phenyl)-4,5,6,7-tetrahydro-1H-pyrrolo[3,2-c]pyridin-5-yl]-3-methyl-phenyl]-N-methyl-methanesulfonic acid amide]	< 50%	1 to 5 µM
Cc1cc(C#N)c(F)cc1N1CCc2[nH]c(-c3c(F)cccc3F)cc2C1 [Example 67, 4-[2-(2,6-Difluoro-phenyl)-4,5,6,7-tetrahydro-1H-pyrrolo[3,2-c]pyridin-5-yl]-2-fluoro-5-methyl-benzonitrile]	< 50%	0.5 to 1 µM
Cc1sc(S(C)(=O)=O)nc1N1CCc2[nH]c(-c3c(F)cccc3F)cc2C1 [Example 133, 4-[2-(2,6-Difluoro-phenyl)-4,5,6,7-tetrahydro-1H-pyrrolo[3,2-c]pyridin-5-yl]-5-methyl-2-methylsulfonyl-thiazole]	> 70%	0.5 to 1 µM
CCOc1cc(OC)c(N2CCc3[nH]c(-c4c(F)cccc4F)cc3C2)cn1 [Example 143, 2-(2,6-Difluoro-phenyl)-5-(6-ethoxy-4-methoxy-pyridin-3-yl)-4,5,6,7-tetrahydro-1H-pyrrolo[3,2-c]pyridine]	< 50%	1 to 5 µM
Cc1ccccc1N1CCc2[nH]c(-c3c(F)cccc3F)cc2C1 [Example 22, 2-(2,6-Difluoro-phenyl)-5-o-tolyl-4,5,6,7-tetrahydro-1H-pyrrolo[3,2-c]pyridine]	> 70%	1 to 5 µM
Cc1cc(C(F)(F)F)ncc1N1CCc2[nH]c(-c3cncc(F)c3C)cc2C1 [Example 141, 2-(5-Fluoro-4-methyl-pyridin-3-yl)-5-[4-methyl-6-(trifluoromethyl)-pyridin-3-yl]-4,5,6,7-tetrahydro-1H-pyrrolo[3,2-c]pyridine]	> 70%	< 0.5 µM
Cc1ccc(-c2nccs2)cc1N1CCc2[nH]c(-c3c(F)cccc3F)cc2C1 [Example 8, 2-[3-[2-(2,6-Difluoro-phenyl)-4,5,6,7-tetrahydro-1H-pyrrolo[3,2-c]pyridin-5-yl]-4-methyl-phenyl]-thiazole]	> 70%	< 0.5 µM
Cc1cc(S(C)(=O)=O)ncc1N1CCc2[nH]c(-c3ccc(F)cc3F)cc2C1 [Example 78, 2-(2,4-Difluoro-phenyl)-5-(4-methyl-6-methylsulfonyl-pyridin-3-yl)-4,5,6,7-tetrahydro-1H-pyrrolo[3,2-c]pyridine]	> 70%	0.5 to 1 µM
CNS(=O)(=O)c1ccc(N2CCc3[nH]c(C4CCC(F)(F)CC4)cc3C2)c(C)c1 [Example 128, 4-[2-(4,4-Difluoro-cyclohexyl)-4,5,6,7-tetrahydro-1H-pyrrolo[3,2-c]pyridin-5-yl]-N,3-dimethyl-benzenesulfonic acid amide]	< 50%	1 to 5 µM
Cn1nc(C2CC2)cc1N1CCc2[nH]c(-c3c(F)cccc3F)cc2C1 [Example 106, 5-(5-Cyclopropyl-2-methyl-2H-pyrazol-3-yl)-2-(2,6-difluoro-phenyl)-4,5,6,7-tetrahydro-1H-pyrrolo[3,2-c]pyridine]	> 70%	0.5 to 1 µM
Cc1cc(C(F)(F)F)ncc1N1CCc2[nH]c(C3CCCOC3)cc2C1 (stereo not shown) [Example 134, 5-[4-Methyl-6-(trifluoromethyl)-pyridin-3-yl]-2-tetrahydro-pyran-3-yl-4,5,6,7-tetrahydro-1H-pyrrolo[3,2-c]pyridine]	> 70%	1 to 5 µM
COc1cc(OC(F)F)ncc1N1CCc2[nH]c(-c3c(F)cccc3F)cc2C1 [Example 140, 5-[6-(Difluoro-methoxy)-4-methoxy-pyridin-3-yl]-2-(2,6-difluoro-phenyl)-4,5,6,7-tetrahydro-1H-pyrrolo[3,2-c]pyridine]	> 70%	< 0.5 µM
CCOc1cc(C)c(N2CCc3[nH]c(-c4c(F)cccc4F)cc3C2)cn1 [Example 69, 2-(2,6-Difluoro-phenyl)-5-(6-ethoxy-4-methyl-pyridin-3-yl)-4,5,6,7-tetrahydro-1H-pyrrolo[3,2-c]pyridine]	> 70%	0.5 to 1 µM
Cc1cc(S(C)(=O)=O)c(F)cc1N1CCc2[nH]c(-c3c(F)cccc3F)cc2C1 [Example 101, 2-(2,6-Difluoro-phenyl)-5-(5-fluoro-2-methyl-4-methylsulfonyl-phenyl)-4,5,6,7-tetrahydro-1H-pyrrolo[3,2-c]pyridine]	> 70%	< 0.5 µM
Cc1cc(C2CC2)ncc1N1CCc2[nH]c(-c3c(F)cccc3F)cc2C1 [Example 75, 5-(6-Cyclopropyl-4-methyl-pyridin-3-yl)-2-(2,6-difluoro-phenyl)-4,5,6,7-tetrahydro-1H-pyrrolo[3,2-c]pyridine]	> 70%	1 to 5 µM
